Legend:
Caco-2 cells = assay: 2-NBDG glucose uptake by Caco-2 cell monolayers, Na+-independent (sodium free buffer); assay type: cell-based, Human; details: 100 μM compound, Na+-independent (KCl/K2HPO4 buffer)
Protocol: Caco-2 cells, which were derived from human colon adenocarcinoma, were selected for intestinal absorption studies because these cells express the morphological characteristics and most of the functional properties of differentiated small-intestinal enterocytes. Caco-2 cells were seeded on 24-well plates at the density of 2 × 10^5 cells/well. The medium was changed every 1–2 days, and the culture was carried out for 13 days. Then Caco-2 cells were placed in serum-free media for 24 h and then they were washed twice with Hanks’ balanced salt solution (HBSS, pH 7.5, 140 mM NaCl, 5 mM KCl, 1.2 mM Na2HPO4, 2 mM CaCl2, 1.2 mM MgSO4, 20 mM HEPES, 0.2% bovine serum albumin) before the uptake studies. When a sodium free buffer was required, NaCl and Na2HPO4 were replaced with equal amounts of KCl and K2HPO4, respectively. After washing, the cells were incubated for 15 min at room temperature in HBSS before the commencement of this experiment. The uptake studies were initiated by adding HBSS containing either control or test solution (100 μM) and […] (100 μM) for 30 min at 37 °C. Glucose uptake was stopped by adding twofold volume of ice-cold PBS and the wells were washed with ice-cold PBS three times. Fluorescent intensity was measured by a Multimodel Plate Reader (Tecan Infinity 200) with the 485 nmex and 535 nmemiss filter set before and after adding 2-NBDG. Then the cells were lysed in 200 μL lysis buffer (10 mM Tris-HCl pH = 7.4, 150 mM NaCl, 1% Triton-x-100, 1 mM EDTA, 0.1% SDS) and supplemented immediately before they were processed with 10 μg/mL PMSF. Cells were allowed to lyse on ice, and then vortexed and sonicated. The lysate was used for protein determination, protein concentrations were determined as described by BCA kit (Boster, Wuhan, China) with bovine serum albumin as standard.

SGLT-1 = assay: Western blot of SGLT-1 protein expression in Caco-2 cells; assay type: cell-based, Human; details: 100 μM, 6 h
Protocol: Caco-2 cells were cultured on 6-well plates at a density of 1 × 10^6 cells/well for 13 days. The cells were placed in serum-free medium for 24 h prior to the treatment. Then UA and its derivatives (100 μM) were added, after 6 h incubation, the cells were immediately washed three times with ice-cold PBS and lysed in 200 μL lysis buffer. Cells were allowed to lyse on ice, and then scraped, vortexed, sonicated and stored at −80 °C for further analysis. Protein concentrations were determined as described and cell lysate was subjected to western blot analysis. Briefly, proteins with same amount were denatured in sample buffer, separated on 8% SDS-PAGE gel, and transferred onto a polyvinylidene diflouride membrane. […] Membranes were then incubated overnight at 4 °C in blocking buffer with antibodies for GLUT-2, SGLT-1 and β-actin (EMD, Millipore, Billerica, MA, USA). Membranes were washed with TBST and incubated 1 h with appropriate secondary antibodies. Revelation was performed by using the enhanced chemiluminescence reagent and blue-light sensitive film. Densitometric analysis of films was performed with a Hewlett-Packard scanner equipped with a transparent adaptor and UN-SCAN-IT software.

[1] = tested on: STZ-induced diabetic rats; assay: Fasting blood glucose in STZ-induced diabetic rats, 4 weeks treatment; assay type: in vivo, rat
Protocol: Adult male albino rats of Sprague-Dawley rats (180–220 g) were obtained from the Guangdong Medical Lab Animal Center, and maintained under standard laboratory conditions in a temperature (25–30 °C) and light-controlled (12-h light/dark cycle) room with 35%–60% humidity. The animals were acclimatized for 10 days before the experiments and provided with rodent chow and water ad libitum. The investigation was conducted in accordance with the Guide for the Care and Use of Laboratory Animals and approved by the institutional Animal Ethics Committee.
(§1) Diabetes was induced by a single intraperitoneal injection of streptozotocin (Sigma-Aldrich, St. Louis, MO, USA) at a dose of 65 mg/kg body weight. STZ was dissolved in 0.1 M cold citrate buffer, pH 4.5. Control group were injected with citrate buffer alone. After 7 days for the development of diabetes, plasma glucose levels were determined of each rat. Rats with fasting blood glucose (FBG) range of above 16.7 mmol/L were considered as DM rats and were used for further study.
(§2) According to the body weight and plasma glucose levels the rats were divided randomly into seven groups with six rats each and treated as follows: • Group I: Normal rats treated with 0.5% CMC-Na (2 mL/200 g body weight). • Group II: Diabetic rats treated with 0.5% CMC-Na. • Group III: Diabetic rats treated with 10 mg/kg of glibenclamide. • Group IV: Diabetic rats treated with 100 mg/kg of compound 1 (UA). • Group V: Diabetic rats treated with 100 mg/kg of compound 10. • Group VI: Diabetic rats treated with 100 mg/kg of compound 11. • Group VII: Diabetic rats treated with 100 mg/kg of compound 12.
(§3) The treatment was continued daily for 28 days. Blood glucose levels and body weight were measured every week to ascertain the status of diabetes. After 4 weeks of treatment, the animals were fasted for 12 h and sacrificed by cervical dislocation under mild anaesthetization, blood was collected into heparinized tubes and centrifuged at 2,000 rpm for 10 min. Livers and kidneys were removed, washed and homogenized in ice-cold normal saline. This homogenates were centrifuged at 3,000 rpm for 10 min at 4 °C, and the supernatants were collected for the estimate of antioxidant markers.
Fasting blood glucose levels were estimated on days 0, 7, 14, 28 with the single touch glucometer (Life Scan, Johnson & Johnson Company, New Brunswick, NJ, USA). Serum insulin level was measured by use of a commercial immunoassay kit by enzyme linked immunosorbent assay (Uscn. Life Science Inc., Wuhan, China). Serum total protein, albumin, triglycerides (TG), total cholesterol (TC), high-density lipoprotein cholesterol (HDL-C), and low-density lipoprotein cholesterol (LDL-C) were measured with an automatic biochemical analyzer (Sinnowa D240, Nanjing, China).

[2] = tested on: STZ-induced diabetic rats; assay: Body weight and daily food intake of STZ-induced diabetic rats; assay type: in vivo, rat
Protocol: as §1, §2, §3

CCC(=O)O[C@H]1CC[C@@]2(C)C(CC[C@]3(C)C2CC=C2C4[C@@H](C)[C@H](C)CC[C@]4(C(=O)O)CC[C@]23C)C1(C)C (stereo partly shown) [Compound 10]
glucose uptake, % of the control value (Na+-independent) (Caco-2 cells): 70 % of the control value
effect on protein expression of SGLT-1 (SGLT-1): significantly reduce
Fasting Blood Glucose Level, Week 0 ([1]; STZ diabetic rats, Week 0 (before treatment), compounds 100 mg/kg, glibenclamide 10 mg/kg, n = 6): 320.40 ± 12.96 mg/dL
Fasting Blood Glucose Level, Week 1 ([1]; STZ diabetic rats, Week 1, compounds 100 mg/kg, glibenclamide 10 mg/kg daily, n = 6): 270.00 ± 16.74 mg/dL
Fasting Blood Glucose Level, Week 2 ([1]; STZ diabetic rats, Week 2, compounds 100 mg/kg, glibenclamide 10 mg/kg daily, n = 6): 286.20 ± 18.90 mg/dL
Fasting Blood Glucose Level, Week 3 ([1]; STZ diabetic rats, Week 3, compounds 100 mg/kg, glibenclamide 10 mg/kg daily, n = 6): 234.00 ± 14.58 mg/dL
Fasting Blood Glucose Level, Week 4 ([1]; STZ diabetic rats, Week 4, compounds 100 mg/kg, glibenclamide 10 mg/kg daily, n = 6): 225.00 ± 11.70 mg/dL
decrease in blood glucose levels as compared with diabetic control ([1]; end of the 4 week treatment, compound 10 100 mg/kg, glibenclamide 10 mg/kg): 49.6%
daily food intake vs untreated diabetic rats ([2]; compounds 100 mg/kg, glibenclamide 10 mg/kg, oral): reduce daily food intake significantly
body weight vs diabetic control ([2]; end of the treatment period, 100 mg/kg): significant increase

— article PMC6270814, “Effects of Ursolic Acid Derivatives on Caco-2 Cells and Their Alleviating Role in Streptozocin-Induced Type 2 Diabetic Rats” (Molecules, 2014)
